From patent US20030180396A1, “Method of effecting phosphorylation in eucaryotic cells using thiamine triphosphate” (INSTITUT PASTEUR, priority 1999, published 2003)
“Also recorded” adds a separate entry of the source. Read-outs that look alike come from different tables or passages of the source.

Legend:
[1] = system: TTP-dependent kinase(s) (TTP-kinase, TTP-43K-kinase); assay: TTP-dependent phosphorylation of 43K rapsyn by endogenous kinase(s) in nAChR-rich postsynaptic membranes; type: biochemical, Torpedo marmorata; details: for IC50: FIG. 3A, preincubation with cold triphosphate, read-out: IC50, inhibition of TTP-dependent phosphorylation of 43K rapsyn; for Kd: read-out: KD (apparent dissociation constant) of 43K rapsyn phosphorylation
Experimental: (§1) nAChR-rich postsynaptic membranes (nAChR-membranes) were prepared from electric organs excised from freshly killed Torpedo marmorata (T.m.) (Biologie Marine, Arcachon) (3, 16).
(§2) [γ-^32P]-TTP (^32P-TTP) was synthesized (27). nAChR-membranes were phosphorylated with (7-8000 Ci/mol) ^32P-TTP or ^32P-ATP in 50 mM Tris-HCl pH 7.5, 5-15 mM MgCl2, 0.08% CHAPS, inhibitors of proteases at 4°-20° C. for 60-90 minutes. […] Coomassie blue staining was performed when necessary. Where specified, nAChR-membranes were treated with 5-20 mM diethylpyrocarbonate (DEPC.) (28) in 50 mM Na phosphate buffer pH 6.0 and 7.4 (20 min, 16° C.), prior to incubation with ^32P-TTP.
A purified extract containing the kinase responsible for the TTP dependent phosphorylation of histidine residues on rapsyn, is preincubated with increasing concentration of products inhibiting the enzymatic activity of said kinase (FIG. 3A).

[2] = system: endogenous protein kinase A (PKA); assay: ATP-dependent phosphorylation of 43K rapsyn in nAChR-rich postsynaptic membranes; type: biochemical, Torpedo marmorata
Experimental: as §1, §2

[3] = target: T1, Nucleoside diphosphate kinase (NDPK) (Dictyostelium discoideum, UniProt P22887); assay: Phosphorylation of NDPK with 32P-ATP or 32P-TTP as phosphodonor; type: biochemical; details: data not shown
T1 sequence (P22887 1-155): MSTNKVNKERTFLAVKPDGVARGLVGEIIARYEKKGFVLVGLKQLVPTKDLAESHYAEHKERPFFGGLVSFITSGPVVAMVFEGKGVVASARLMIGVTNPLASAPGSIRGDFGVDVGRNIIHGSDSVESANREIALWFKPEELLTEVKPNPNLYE
Experimental: NDPK is a highly conserved enzyme which plays a key role in growth and metastasis control (47). As the enzyme autophosphorylates histidine and presents a broad specificity, phosphorylation was assayed with TTP.

mouse brain membranes = details: FIG. 8
[4] = Chemical stability of the phosphate links of phosphorylated 43K rapsyn (TCA / KOH treatment); type: physicochemical, Torpedo marmorata; details: for P-aa stability (base): PVDF blot + base; for P-aa stability (acid): SDS-PAGE gel + acid
Experimental: For acid treatment, SDS-PAGE gels containing ^32P-ATP- or ^32P-TTP-treated membranes were cut and incubated with Tris buffer or 16% TCA at 90° C. (29, 30), washed, and analyzed. Equivalent amounts of 43K rapsyn were ensured by Coomassie blue staining. For base treatment, ^32P-labeled membranes were resolved by SDS-PAGE, electroblotted on polyvinylidene difluoride membrane (PVDF). Blots were dried at 55° C. to minimize protein loss, wet in methanol, washed with H2O, cut and incubated in water or 1N KOH at 46° C. and analyzed.

Nc1ncnc2c1nc(Sc1ccc(Cl)cc1)n2[C@@H]1O[C@@H]2COP(=O)([O-])O[C@H]2[C@H]1O.[Na+] [8-CPT-cAMP, Adenosine 3′-5′-cyclic monophosphate, 8-(4-Chlorophenylthio)-sodium salt]
effect on TTP-dependent phosphorylation of 43K rapsyn / TTP-kinase activity (in words) [1]: did not drastically alter

Nc1ncnc2c1ncn2[C@@H]1O[C@H](COP(=O)(O)OP(=O)(O)OP(=O)(O)O)[C@@H](O)[C@H]1O [ATP, adenosine triphosphate]
effect on 32P-ATP-dependent 43K rapsyn phosphorylation (in words) [2]: specifically inhibited
effect on TTP-dependent phosphorylation of 43K rapsyn / TTP-kinase activity (in words) [1]: specifically inhibited
IC50 [1]: ~500 µM

Nc1ccn([C@@H]2O[C@H](COP(=O)(O)OP(=O)(O)OP(=O)(O)O)[C@@H](O)[C@H]2O)c(=O)n1 [CTP]
effect on TTP-dependent phosphorylation of 43K rapsyn / TTP-kinase activity (in words) [1]: inhibits poorly

CCOC(=O)OC(=O)OCC [DEPC, diethylpyrocarbonate]
43K rapsyn phosphorylation, % 32P ([1]; membranes pretreated with 5-20 mM DEPC, versus 100±19% in mock membranes): 20±2%

O[C@@H](CS)[C@@H](O)CS [DTT]
effect on TTP-dependent phosphorylation of 43K rapsyn / TTP-kinase activity (in words) [1]: partially inhibited
% inhibition of TTP-kinase activity ([1]; 10 mM): 30-40%

CN(C)CCCn1cc(C2=C(c3c[nH]c4ccccc34)C(=O)NC2=O)c2ccccc21 [GFX, bisindolylmaleimide I]
effect on TTP-dependent phosphorylation of 43K rapsyn / TTP-kinase activity (in words) [1]: did not drastically alter

Nc1nc2c(ncn2[C@@H]2O[C@H](COP(=O)(O)OP(=O)(O)OP(=O)(O)O)[C@@H](O)[C@H]2O)c(=O)[nH]1 [GTP]
IC50 [1]: ~1000 µM

CC1CNCCN1S(=O)(=O)c1cccc2cnccc12 (centres unmarked) [H7]
effect on TTP-dependent phosphorylation of 43K rapsyn / TTP-kinase activity (in words) [1]: did not drastically alter

O=S(=O)(NCCNC/C=C/c1ccc(Br)cc1)c1cccc2cnccc12 [H89]
effect on TTP-dependent phosphorylation of 43K rapsyn / TTP-kinase activity (in words) [1]: did not drastically alter

CN([C@@H](Cc1ccc(OS(=O)(=O)c2cccc3cnccc23)cc1)C(=O)N1CCN(c2ccccc2)CC1)S(=O)(=O)c1cccc2cnccc12 [KN62]
effect on TTP-dependent phosphorylation of 43K rapsyn / TTP-kinase activity (in words) [1]: did not drastically alter

CCCCCCOC(=O)[C@]1(O)C[C@@H]2O[C@@]1(C)n1c3ccccc3c3c4c(c5c6ccccc6n2c5c31)C(=O)NC4 [KT5720]
effect on TTP-dependent phosphorylation of 43K rapsyn / TTP-kinase activity (in words) [1]: did not drastically alter

O=S(=O)(c1cccc2c(I)cccc12)N1CCCNCC1 [ML7]
effect on TTP-dependent phosphorylation of 43K rapsyn / TTP-kinase activity (in words) [1]: did not drastically alter

[Mg+2] [Mg^2+]
effect on TTP-dependent phosphorylation of 43K rapsyn / TTP-kinase activity (in words) [1]: enhanced

CCCCCCCCCCCCCC(=O)O[C@@H]1[C@@H](C)[C@@]2(O)[C@@H](C=C(CO)C[C@]3(O)C(=O)C(C)=C[C@@H]23)[C@@H]2C(C)(C)[C@]12OC(C)=O [TPA, phorbol-12-myristate-13-acetate]
effect on TTP-dependent phosphorylation of 43K rapsyn / TTP-kinase activity (in words) [1]: did not drastically alter

[Zn+2] [Zn^2+]
effect on TTP-dependent phosphorylation of 43K rapsyn / TTP-kinase activity (in words) [1]: inhibited; also recorded: prevented
% inhibition of TTP-dependent phosphorylation of 43K rapsyn ([1]; 0.5-3 mM Zn2+, 8 μM 32P-TTP, Mg2+ independent): ~70%

Nc1ncnc2c1ncn2[C@@H]1O[C@H](COP(=O)(O)OP(=O)(O)O[32P](=O)(O)O)[C@@H](O)[C@H]1O [^32P-ATP, [γ-^32P]-ATP, reference compound]
concentration saturating 43K rapsyn phosphorylation ([2]; not yet saturated): > 200 µM
phosphorylation of NDPK by the phosphodonor [3]: strongly phosphorylated

Cc1ncc(C[n+]2csc(CCOP(=O)(O)OP(=O)(O)O[32P](=O)([O-])O)c2C)c(N)n1 [^32P-TTP, [γ-^32P]-TTP]
concentration saturating 43K rapsyn phosphorylation ([1]; FIG. 3C): 25 to 50 µM
phosphorylation of NDPK by the phosphodonor [3]: not

COc1ccc(C[C@H]2NC[C@H](O)[C@H]2OC(C)=O)cc1 [anisomycin]
effect on TTP-dependent phosphorylation of 43K rapsyn / TTP-kinase activity (in words) [1]: did not drastically alter

Nc1nc2c(ncn2[C@@H]2O[C@@H]3COP(=O)(O)O[C@H]3[C@H]2O)c(=O)[nH]1 [cGMP]
effect on TTP-dependent phosphorylation of 43K rapsyn / TTP-kinase activity (in words) [1]: did not drastically alter

Clc1ccc(C(c2ccc(Cl)cc2)n2cc[n+](CC(OCc3ccc(Cl)cc3Cl)c3ccc(Cl)cc3Cl)c2)cc1 (centres unmarked) [calmidazolium]
effect on TTP-dependent phosphorylation of 43K rapsyn / TTP-kinase activity (in words) [1]: did not drastically alter

O=c1c(-c2ccc(O)cc2)coc2cc(O)cc(O)c12 [genisterin, genistein]
effect on TTP-dependent phosphorylation of 43K rapsyn / TTP-kinase activity (in words) [1]: did not drastically alter

CN[C@@H]1C[C@H]2O[C@@](C)([C@@H]1OC)n1c3ccccc3c3c4c(c5c6ccccc6n2c5c31)C(=O)NC4 [staurosporine]
effect on TTP-dependent phosphorylation of 43K rapsyn / TTP-kinase activity (in words) [1]: did not drastically alter

TNF-α
effect on TTP-dependent phosphorylation of 43K rapsyn / TTP-kinase activity (in words) [1]: did not drastically alter

calphostin
effect on TTP-dependent phosphorylation of 43K rapsyn / TTP-kinase activity (in words) [1]: did not drastically alter

thiamine triphosphate [TTP]
proteins phosphorylated in mouse brain membranes (mouse brain membranes): phosphorylated very few
effect on 32P-ATP-dependent 43K rapsyn phosphorylation (in words) [2]: specifically inhibited
effect on TTP-dependent phosphorylation of 43K rapsyn / TTP-kinase activity (in words) [1]: specifically inhibited
IC50 [1]: ~40 µM
Kd ([1]; FIG. 3C, dose dependent and saturable): 5 to 10 µM
Kd ([1]; one membrane preparation): ~25 µM

B1: 43K-rapsyn/ATP: 43K rapsyn phosphorylated with ^32P-ATP (protein, UniProt Q13702 2-412, looked up)
43 kDa receptor-associated …: GQDQTKQQIEKGLQLYQSNQTEKALQVWTKVLEKSSDLMGRFRVLGCLVTAHSEMGRYKEMLKFAVVQIDTARELEDADFLLESYLNLARSNEKLCEFHKTISYCKTCLGLPGTRAGAQLGGQVSLSMGNAFLGLSVFQKALESFEKALRYAHNNDDAMLECRVCCSLGSFYAQVKDYEKALFFPCKAAELVNNYGKGWSLKYRAMSQYHMAVAYRLLGRLGSAMECCEESMKIALQHGDRPLQALCLLCFADIHRSRGDLETAFPRYDSAMSIMTEIGNRLGQVQALLGVAKCWVARKALDKALDAIERAQDLAEEVGNKLSQLKLHCLSESIYRSKGLQRELRAHVVRFHECVEETELYCGLCGESIGEKNSRLQALPCSHIFHLRCLQNNGTRSCPNCRRSSMKPGFV
modifications: 32P-phosphorylated (ATP)
notes: 43K rapsyn phosphorylated with ^32P-ATP
P-aa stability (base) [4]: base-labile
P-aa stability (base) ([4]; listed as ATP-^32P-43K rapsyn): alkaline labile
% 32P remaining ([4]; PVDF blot, 1 N KOH 46° C. 40 min, relative to control): 41 ± 1%
% 32P remaining ([4]; PVDF blot, 1 N KOH 46° C. 120 min, relative to control): 18 ± 2%
% 32P remaining ([4]; PVDF blot, 1 N KOH 46° C. 120 min, relative to control, listed as ATP-^32P-43K rapsyn): 18±2%
P-aa stability (acid) [4]: acid-stable
P-aa stability (acid) ([4]; listed as ATP-^32P-43K rapsyn): acid stable
% 32P remaining ([4]; SDS-PAGE gel, 16% TCA, 90° C. 5 min, relative to control): 79 ± 5%
% 32P remaining ([4]; SDS-PAGE gel, 16% TCA, 90° C. 5 min, relative to control, listed as ATP-^32P-43K rapsyn): 79±5%
% 32P remaining ([4]; SDS-PAGE gel, 16% TCA, 90° C. 10 min, relative to control): 49 ± 9%
% 32P remaining ([4]; SDS-PAGE gel, 16% TCA, 90° C. 10 min, relative to control, listed as ATP-^32P-43K rapsyn): 49±9%
Paa/pH-stability ([4]; putative Paa listed in both acid- and base-stability analysis (ref. 45)): P-Ser and/or P-Thr

B2: 43K-rapsyn/TTP: 43K rapsyn phosphorylated with ^32P-TTP (protein, UniProt Q13702 2-412, looked up)
43 kDa receptor-associated …: GQDQTKQQIEKGLQLYQSNQTEKALQVWTKVLEKSSDLMGRFRVLGCLVTAHSEMGRYKEMLKFAVVQIDTARELEDADFLLESYLNLARSNEKLCEFHKTISYCKTCLGLPGTRAGAQLGGQVSLSMGNAFLGLSVFQKALESFEKALRYAHNNDDAMLECRVCCSLGSFYAQVKDYEKALFFPCKAAELVNNYGKGWSLKYRAMSQYHMAVAYRLLGRLGSAMECCEESMKIALQHGDRPLQALCLLCFADIHRSRGDLETAFPRYDSAMSIMTEIGNRLGQVQALLGVAKCWVARKALDKALDAIERAQDLAEEVGNKLSQLKLHCLSESIYRSKGLQRELRAHVVRFHECVEETELYCGLCGESIGEKNSRLQALPCSHIFHLRCLQNNGTRSCPNCRRSSMKPGFV
modifications: 32P-phosphorylated (TTP)
notes: 43K rapsyn phosphorylated with ^32P-TTP
Paa/pH-stability [4]: P-His and/or P-Lys
% 32P remaining ([4]; 40 min): 96 ± 3%
